Experimental data: patent publication US6949536B2, “Sulfonylbenzene compounds as anti-inflammatory/analgesic agents” (Pfizer, Inc., priority 1998, dated 2005)
Counter-ions that a name gives are not always drawn.

melting point [°C] | Structure (SMILES)
174.4 | NS(=O)(=O)c1ccc(-n2nc(C(F)(F)F)cc2-c2ccc(-c3ccco3)cc2)c(F)c1 (as salt: hydrochloride) [Example 141, 3-Fluoro-4-[5-[4-(2-furyl)phenyl]-3-(trifluoromethyl)-1H-pyrazol-1-yl]benzenesulfonamide]
119 | Cc1noc(-c2ccc(S(C)(=O)=O)cc2)c1-c1ccc(-c2cscn2)cc1 [Example 191, 3-Methyl-5-[4-(methylsulfonyl)phenyl]-4-[4-(1,3-thiazol-4-yl)phenyl]isoxazole]
137.4 | Cc1cc(-n2nc(C(F)(F)F)cc2-c2ccc(-c3ccco3)cc2)ccc1S(N)(=O)=O (as salt: hydrochloride) [Example 143, 4-[5-[4-(2-Furyl)phenyl]-3-(trifluoromethyl)-1H-pyrazol-1-yl]-2-methylbenzenesulfonamide]
159 to 160 | CS(=O)(=O)c1ccc(-n2nc(C(F)(F)F)cc2-c2ccc(-c3ccco3)cc2)cc1C(F)(F)F (as salt: hydrochloride) [Example 135, 5-[4-(2-Furyl)phenyl]-1-[4-(methylsulfonyl)-3-(trifluoromethyl)phenyl]-3-trifluoromethyl-1H-pyrazole]
112 to 115 | Cc1onc(-c2ccc(-c3cscn3)cc2)c1-c1ccc(S(N)(=O)=O)cc1 [Example 171, 4-{5-Methyl-3-[4-(1,3-thiazol-4-yl)phenyl]-4-isoxazolyl}benzenesulfonamide]
196 to 197 | Cc1nc(-c2ccc(-c3cscn3)cc2)c(-c2ccc(S(C)(=O)=O)c(F)c2)o1 [Example 169, 5-[3-Fluoro-4-(methylsulfonyl)phenyl]-2-methyl-4-[4-(1,3-thiazol-4-yl)phenyl]-1,3-oxazole]
215 | Cc1ccc(-c2ccc(S(C)(=O)=O)c(F)c2)n1-c1ccc(-c2cscn2)cc1 [Example 151, 5-[3-Fluoro-4-(methylsulfonyl)phenyl]-2-methyl-1-[4-(4-thiazolyl)phenyl]-1H-pyrrole]
205 | Cc1cc(S(C)(=O)=O)ccc1-n1nc(C(F)(F)F)cc1-c1ccc(-c2ccco2)cc1 (as salt: hydrochloride) [Example 142, 5-[4-(2-Furyl)phenyl]-1-[4-(methylsulfonyl)-2-methylphenyl]-3-trifluoromethyl-1H-pyrazole]
159 | Cc1onc(-c2ccc(S(C)(=O)=O)cc2)c1-c1ccc(-c2cscn2)cc1 [Example 189, 5-Methyl-3-[4-(methylsulfonyl)phenyl]-4-[4-(1,3-thiazol-4-yl)phenyl]isoxazole]
78 to 80 | Cc1cc(-c2cc(C(F)(F)F)nn2-c2ccc(S(N)(=O)=O)c(F)c2)ccc1-c1ccco1 [Example 139, 2-Fluoro-4-[5-[4-(2-furyl)-3-methylphenyl]-3-(trifluoromethyl)-1H-pyrazol-1-yl]benzenesulfonamide]
216 | Cc1onc(-c2ccc(-c3cscn3)cc2)c1-c1ccc(S(N)(=O)=O)c(F)c1 [Example 172, 2-Fluoro-4-{5-methyl-3-[4-(1,3-thiazol-4-yl)phenyl]-4-isoxazolyl}benzenesulfonamide]
174.7 | Cc1cc(-c2cscn2)ccc1-c1cc(C(F)(F)F)nn1-c1ccc(S(C)(=O)=O)cc1 (as salt: methanesulfonate) [Example 186, 1-[4-(Methylsulfonyl)phenyl]-5-[2-methyl-4-(4-thiazolyl)phenyl]-3-trifluoromethyl-1H-pyrazole]
114 to 116 | Cc1cc(-c2noc(C)c2-c2ccc(S(N)(=O)=O)c(F)c2)ccc1-c1cscn1 [Example 188, 2-Fluoro-4-[5-methyl-3-[3-methyl-4-(1,3-thiazol-4-yl)phenyl]-4-isoxazolyl]benzenesulfonamide]

The remaining lines, values behind:

Structure (SMILES) | melting point [°C]
Cc1ccc(-c2ccc(S(C)(=O)=O)cc2)n1-c1ccc(-c2ccsc2)cc1 [Example 46, 2-Methyl-5-[4-(methylsulfonyl)phenyl]-1-[4-(3-thienyl)phenyl]-1H-pyrrole] | 187 to 188
CS(=O)(=O)c1ccc(-n2nc(C(F)(F)F)cc2-c2ccc(-c3nccs3)cc2)cc1 [Example 22, 1-[4-(Methylsulfonyl)phenyl]-5-[4-(2-thiazolyl)phenyl]-3-trifluoromethyl-1H-pyrazole] | 206 to 207
NS(=O)(=O)c1ccc(-n2nc(C(F)(F)F)cc2-c2ccc(-c3cscn3)cc2)cc1F (as salt: hydrochloride) [Example 103, 2-Fluoro-4-[5-[4-(1,3-thiazol-4-yl)phenyl]-3-(trifluoromethyl)-1H-pyrazol-1-yl]benzenesulfonamide] | 168 to 170
NS(=O)(=O)c1ccc(-n2nc(C(F)(F)F)cc2-c2ccc(-c3cscn3)cc2)cc1 (as salt: hydrochloride) [Example 100, 4-[5-[4-(1,3-Thiazol-4-yl)phenyl]-3-(trifluoromethyl)-1H-pyrazol-1-yl]benzenesulfonamide] | 188 to 190
CS(=O)(=O)c1ccc(-n2cc(C(F)(F)F)nc2-c2ccc(-c3ccco3)cc2)cc1 [Example 53, 2-[4-(2-Furyl)phenyl]-1-[4-(methylsulfonyl)phenyl]-4-(trifluoromethyl)-1H-imidazole] | 82 to 84
COC(=O)c1cc(-c2ccc(-c3nccs3)cc2)n(-c2ccc(S(N)(=O)=O)cc2)n1 [Example 88, Methyl 1-(4-sulfamoylphenyl)-5-[4-(2-thiazolyl)phenyl]-1H-pyrazole-3-carboxylate] | 204 to 206
COc1cc(-c2cc(C(F)(F)F)nn2-c2ccc(S(C)(=O)=O)cc2)ccc1-c1cocn1 (as salt: hydrochloride) [Example 111, 4-{2-Methoxy-4-[1-[4-(methylsulfonyl)phenyl]-3-(trifluoromethyl)-1H-pyrazol-5-yl]phenyl}-1,3-oxazole] | 171 to 173
Cc1cc(-c2cc(C(F)(F)F)nn2-c2ccc(S(N)(=O)=O)cc2)ccc1-c1cocn1 (as salt: hydrochloride) [Example 116, 4-[5-[3-Methyl-4-(1,3-oxazol-4-yl)phenyl]-3-(trifluoromethyl)-1H-pyrazol-1-yl]benzenesulfonamide] | 112 to 114
CS(=O)(=O)c1ccc(-n2nc(C(F)(F)F)cc2-c2ccc(-c3cc4ccccc4o3)cc2)cc1 [Example 4, 1-[4-(Methylsulfonyl)phenyl]-5-[4-(benzo[b]furan-2-yl)phenyl]-3-trifluoromethyl-1H-pyrazole] | 137 to 138
Cc1ccc(-c2ccc(S(C)(=O)=O)cc2)n1-c1ccc(-c2cccs2)cc1 [Example 45, 2-Methyl-5-[4-(methylsulfonyl)phenyl]-1-[4-(2-thienyl]phenyl]-1H-pyrrole] | 185 to 186
Cc1cc(-n2c(C)ccc2-c2ccc(S(C)(=O)=O)cc2)ccc1-c1ccco1 [Example 40, 1-[4-(2-Furyl)-3-methylphenyl]-2-methyl-5-[4-(methylsulfonyl)phenyl]-1H-pyrrole] | 160 to 162
Cc1cc(-c2cc(C(F)(F)F)nn2-c2ccc(S(C)(=O)=O)cc2)ccc1-c1cscn1 (as salt: hydrochloride) [Example 125, 4-{2-Methyl-4-[1-[4-(methylsulfonyl)phenyl]-3-(trifluoromethyl)-1H-pyrazol-5-yl]phenyl}-1,3-thiazole] | 140 to 142
Cc1ccc(-c2ccc(S(C)(=O)=O)cc2)n1-c1ccc(-c2nccs2)cc1 [Example 49, 2-Methyl-5-[4-(methylsulfonyl)phenyl]-1-[4-(2-thiazolyl)phenyl]-1H-pyrrole] | 190 to 191
CS(=O)(=O)c1ccc(-n2nc(C(F)(F)F)cc2-c2ccc(-c3ccoc3)cc2)cc1F [Example 85, 1-[3-Fluoro-4-(methylsulfonyl)phenyl]-5-[4-(3-furyl)phenyl]-3-(trifluoromethyl)-1H-pyrazole] | 74 to 76
Cc1ccc(-c2ccc(S(C)(=O)=O)cc2)n1-c1ccc(-c2ccco2)c(Cl)c1 [Example 42, 1-[3-Chloro-4-(2-furyl)phenyl]-2-methyl-5-[4-(methylsulfonyl)phenyl]-1H-pyrrole] | 127 to 131
NS(=O)(=O)c1ccc(-n2nc(C(F)(F)F)cc2-c2ccc(-c3cocn3)cc2)cc1 (as salt: hydrochloride) [Example 118, 4-[5-[4-(1,3-Oxazol-4-yl)phenyl]-3-(trifluoromethyl)-1H-pyrazol-1-yl]benzenesulfonamide] | 170 to 172
Cc1nc(-c2ccc(-c3cccs3)cc2)c(-c2ccc(S(C)(=O)=O)cc2)o1 [Example 50, 2-Methyl-5-[4-(methylsulfonyl)phenyl]-4-[4-(2-thienyl)phenyl]oxazole] | 183 to 185
Cc1cc(-c2ccc(-c3ccco3)cc2)n(-c2ccc(S(C)(=O)=O)cc2)c1 [Example 59, 2-[4-(2-Furyl)phenyl]-4-methyl-1-[4-(methylsulfonyl)phenyl]-1H-pyrrole] | 193 to 194
Cc1nc(-c2ccc(-c3cc(C(F)(F)F)nn3-c3ccc(S(C)(=O)=O)c(F)c3)cc2)cs1 [Example 102, 4-{4-[1-[3-Fluoro-4-(methylsulfonyl)phenyl]-3-(trifluoromethyl)-1H-pyrazol-5-yl]phenyl}-2-methyl-1,3-thiazole] | 139 to 141
CS(=O)(=O)c1ccc(-n2nc(C(F)(F)F)cc2-c2ccc(-n3ccnc3)cc2)cc1 [Example 66, 5-[4-(1-Imidazolyl)phenyl]-1-[4-(methylsulfonyl)phenyl]-3-trifluoromethyl-1H-pyrazol] | 183 to 184
Cc1cc(-c2ccco2)ccc1-c1cc(C(F)(F)F)nn1-c1ccc(S(C)(=O)=O)cc1 (as salt: hydrochloride) [Example 78, 1-[4-(Methylsulfonyl)phenyl]-5-[4-(2-furyl)-2-methylphenyl]-3-(trifluoromethyl)-1H-pyrazole] | 175 to 177
COc1cc(-c2cc(C(F)(F)F)nn2-c2ccc(S(C)(=O)=O)cc2)ccc1-c1ccco1 (as salt: hydrochloride) [Example 81, 1-[4-(Methylsulfonyl)phenyl]-5-[4-(2-furyl)-3-methoxyphenyl]-3-(trifluoromethyl)-1H-pyrazole] | 138 to 140
